Data published in US10316017B2, “COT modulators and methods of use thereof” (Gilead Sciences, Inc., priority 2015, dated 2019).

Experiments:
[1] = target: T1, human Cot catalytic domain (30-397 amino acids) (Homo sapiens, UniProt P41279); assay: High Throughput Cot Biochemical Assay (KinEASE TR-FRET); conditions: Cot biochemical HTRF (KinEASE TR-FRET) assay; read-out: IC50 HTRF
T1 construct: Purified recombinant human Cot catalytic domain (30-397 amino acids) was purchased from Cama Biosciences; purchased Cama Biosciences (so in the source)
T1 sequence (P41279 30-397): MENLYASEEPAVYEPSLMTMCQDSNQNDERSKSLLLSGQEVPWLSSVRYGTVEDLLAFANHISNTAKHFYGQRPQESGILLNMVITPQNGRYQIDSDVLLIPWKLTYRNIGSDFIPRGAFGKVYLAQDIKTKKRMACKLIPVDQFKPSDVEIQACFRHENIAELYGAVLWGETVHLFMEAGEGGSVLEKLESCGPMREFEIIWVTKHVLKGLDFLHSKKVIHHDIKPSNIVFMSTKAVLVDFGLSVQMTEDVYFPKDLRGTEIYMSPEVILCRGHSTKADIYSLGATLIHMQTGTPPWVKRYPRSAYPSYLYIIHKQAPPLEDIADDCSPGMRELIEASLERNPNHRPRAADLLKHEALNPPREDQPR
Procedure, shortened: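 Phosphorylation of 1 μM XL665-STK3 peptide by 5 nM Cot catalytic domain was measured by time-resolved FRET using a europium […] antibody. ATP was 400 μM; buffer was 10 mM MOPS pH 7.0 with Mg2+ and DTT.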

[2] = system: TNFα production in LPS-stimulated human monocytes; assay: Cot Monocyte TNFα Cell Based Assay; conditions: Homo sapiens, Monocyte, TNFα in LPS-stimulated human monocytes; read-out: EC50 TNF
Procedure, shortened: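 Percent-of-control values derive from TR-FRET ratios of TNFα in spun-down media, referenced to unstimulated and LPS-stimulated wells. Exposure: 1 h compound preincubation, then 50 pg/ml LPS for 4 h, both at 37 °C, with 0.5% final DMSO.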

CC(C)(C)N1CCC(n2cc([C@@H](Nc3cc(Cl)c4ncc(C#N)c(Nc5ccc(F)c(Cl)c5)c4c3)c3cccc(N4CCCC4=O)c3)nn2)CC1 [Example 550, (S)-6-(((1-(1-(tert-butyl)piperidin-4-yl)-1H-1,2,3-triazol-4-yl)(3-(2-oxopyrrolidin-1-yl)phenyl)methyl)amino)-8-chloro-4-((3-chloro-4-fluorophenyl)amino)quinoline-3-carbonitrile]
IC50 [1]: 1 nM
EC50 [2]: 115 nM

CC(C)n1cc([C@@H](Nc2cc(Cl)c3ncc(C#N)c(Nc4ccc(F)c(Cl)c4)c3c2)c2cccc(N3CCC3=O)c2)nn1 [Example 551, (S)-8-chloro-4-((3-chloro-4-fluorophenyl)amino)-6-(((1-isopropyl-1H-1,2,3-triazol-4-yl)(3-(2-oxoazetidin-1-yl)phenyl)methyl)amino)quinoline-3-carbonitrile]
IC50 [1]: 5 nM
EC50 [2]: 475 nM

CC(C)(C)N1CCC(n2cc([C@@H](Nc3cc(Cl)c4ncc(C#N)c(Nc5ccc(F)c(Cl)c5)c4c3)c3cccc(N4CCC4=O)c3)nn2)CC1 [Example 552, (S)-6-(((1-(1-(tert-butyl)piperidin-4-yl)-1H-1,2,3-triazol-4-yl)(3-(2-oxoazetidin-1-yl)phenyl)methyl)amino)-8-chloro-4-((3-chloro-4-fluorophenyl)amino)quinoline-3-carbonitrile]
IC50 [1]: 5 nM
EC50 [2]: 135 nM

CC(C)[C@@H](Nc1c(C#N)cnc2c(Cl)cc(N[C@@H](c3ccccc3)c3cn(C4CCN(C(C)(C)C)CC4)nn3)cc12)c1ccccc1 [Example 553, 6-(((S)-(1-(1-(tert-butyl)piperidin-4-yl)-1H-1,2,3-triazol-4-yl)(phenyl)methyl)amino)-8-chloro-4-(((R)-2-methyl-1-phenylpropyl)amino)quinoline-3-carbonitrile]
IC50 [1]: 10 nM
EC50 [2]: 423 nM

COCCNc1c(C#N)cnc2c(Cl)cc(N[C@@H](c3ccccc3)c3cn(C4CCN(C(C)(C)C)CC4)nn3)cc12 [Example 554, (S)-6-(((1-(1-(tert-butyl)piperidin-4-yl)-1H-1,2,3-triazol-4-yl)(phenyl)methyl)amino)-8-chloro-4-((2-methoxyethyl)amino)quinoline-3-carbonitrile]
IC50 [1]: 1300 nM
EC50 [2]: 8250 nM

CC(C)(O)CNc1c(C#N)cnc2c(Cl)cc(N[C@@H](c3ccccc3)c3cn(C4CCN(C(C)(C)C)CC4)nn3)cc12 [Example 555, (S)-6-(((1-(1-(tert-butyl)piperidin-4-yl)-1H-1,2,3-triazol-4-yl)(phenyl)methyl)amino)-8-chloro-4-((2-hydroxy-2-methylpropyl)amino)quinoline-3-carbonitrile]
IC50 [1]: 183 nM
EC50 [2]: 537 nM

COC[C@@H](C)Nc1c(C#N)cnc2c(Cl)cc(N[C@@H](c3ccccc3)c3cn(C4CCN(C(C)(C)C)CC4)nn3)cc12 [Example 556, 6-(((S)-(1-(1-(tert-butyl)piperidin-4-yl)-1H-1,2,3-triazol-4-yl)(phenyl)methyl)amino)-8-chloro-4-(((R)-1-methoxypropan-2-yl)amino) quinoline-3-carbonitrile]
IC50 [1]: 725 nM
EC50 [2]: > 10000 nM

COC[C@H](C)Nc1c(C#N)cnc2c(Cl)cc(N[C@@H](c3ccccc3)c3cn(C4CCN(C(C)(C)C)CC4)nn3)cc12 [Example 557, 6-(((S)-(1-(1-(tert-butyl)piperidin-4-yl)-1H-1,2,3-triazol-4-yl)(phenyl)methyl)amino)-8-chloro-4-(((S)-1-methoxypropan-2-yl)amino)quinoline-3-carbonitrile]
IC50 [1]: 999 nM
EC50 [2]: > 10000 nM

CCC[C@@H](Nc1c(C#N)cnc2c(Cl)cc(N[C@@H](c3ccccc3)c3cn(C4CCN(C(C)(C)C)CC4)nn3)cc12)c1ccccc1 [Example 558, 6-(((S)-(1-(1-(tert-butyl)piperidin-4-yl)-1H-1,2,3-triazol-4-yl)(phenyl)methyl)amino)-8-chloro-4-(((R)-1-phenylbutyl)amino)quinoline-3-carbonitrile]
IC50 [1]: 11 nM
EC50 [2]: 199 nM

CC[C@@H](Nc1c(C#N)cnc2c(Cl)cc(N[C@@H](c3cccc(C(=O)N4CC(OC)C4)c3)c3c[nH]nn3)cc12)c1ccccc1 [Example 559, 8-chloro-6-(((S)-(3-(3-methoxyazetidine-1-carbonyl)phenyl)(1H-1,2,3-triazol-4-yl)methyl)amino)-4-(((R)-1-phenylpropyl)amino)quinoline-3-carbonitrile]
IC50 [1]: 14 nM
EC50 [2]: 6050 nM

CC[C@@H](Nc1c(C#N)cnc2c(Cl)cc(N[C@@H](c3cccc(C(=O)N4CC(O)C4)c3)c3c[nH]nn3)cc12)c1ccccc1 [Example 560]
IC50 [1]: 3 nM
EC50 [2]: 8830 nM

CC[C@@H](Nc1c(C#N)cnc2c(Cl)cc(N[C@@H](c3cccc(C(=O)N4CC(F)(F)C4)c3)c3c[nH]nn3)cc12)c1ccccc1 [Example 561, 8-chloro-6-(((S)-(3-(3,3-difluoroazetidine-1-carbonyl)phenyl)(1H-1,2,3-triazol-4-yl)methyl)amino)-4-(((R)-1-phenylpropyl)amino)quinoline-3-carbonitrile]
IC50 [1]: 6 nM
EC50 [2]: 1150 nM

CC[C@@H](Nc1c(C#N)cnc2c(Cl)cc(N[C@@H](c3cccc(C(=O)N4CC(F)C4)c3)c3c[nH]nn3)cc12)c1ccccc1 [Example 562, 8-chloro-6-(((S)-(3-(3-fluoroazetidine-1-carbonyl)phenyl)(1H-1,2,3-triazol-4-yl)methyl)amino)-4-(((R)-1-phenylpropyl)amino)quinoline-3-carbonitrile]
IC50 [1]: 4 nM
EC50 [2]: 848 nM

CC[C@@H](Nc1c(C#N)cnc2c(Cl)cc(N[C@@H](c3cccc(N(C)C(C)=O)c3)c3c[nH]nn3)cc12)c1ccccc1 [Example 563, N-(3-((S)-((8-chloro-3-cyano-4-(((R)-1-phenylpropyl)amino)quinolin-6-yl)amino)(1H-1,2,3-triazol-4-yl)methyl)phenyl)-N-methylacetamide]
IC50 [1]: 2 nM
EC50 [2]: 280 nM

CC[C@@H](Nc1c(C#N)cnc2c(Cl)cc(N[C@@H](c3cccc(N(C)C(C)=O)c3)c3cn(C4CCN(C(C)(C)C)CC4)nn3)cc12)c1ccccc1 [Example 564, N-(3-((S)-(1-(1-(tert-butyl)piperidin-4-yl)-1H-1,2,3-triazol-4-yl)((8-chloro-3-cyano-4 (((R)-1-phenylpropyl)amino)quinolin-6-yl)amino)methyl)phenyl)-N-methylacetamide]
IC50 [1]: 1 nM
EC50 [2]: 68 nM

CC[C@@H](Nc1c(C#N)cnc2c(Cl)cc(N[C@@H](c3cccc(C(=O)O)c3)c3c[nH]nn3)cc12)c1ccccc1 [Example 565, 3-((S)-((8-chloro-3-cyano-4-(((R)-1-phenylpropyl)amino)quinolin-6-yl)amino)(1H-1,2,3-triazol-4-yl)methyl)benzoic acid]
IC50 [1]: 24 nM
EC50 [2]: > 10000 nM

CC(C)n1cc([C@@H](Nc2cc(Cl)c3ncc(C#N)c(Nc4ccc(F)c(Cl)c4)c3c2)c2cccc(NS(C)(=O)=O)c2)nn1 [Example 566, (S)-N-(3-(((8-chloro-4-((3-chloro-4-fluorophenyl)amino)-3-cyanoquinolin-6-yl)amino)(1-isopropyl-1H-1,2,3-triazol-4-yl)methyl)phenyl) methanesulfonamide]
IC50 [1]: 5 nM
EC50 [2]: 353 nM

CC(C)n1cc([C@@H](Nc2cc(Cl)c3ncc(C#N)c(Nc4ccc(F)c(Cl)c4)c3c2)c2cccc(N(C)S(C)(=O)=O)c2)nn1 [Example 567, (S)-N-(3-(((8-chloro-4-((3-chloro-4-fluorophenyl)amino)-3-cyanoquinolin-6-yl)amino)(1-isopropyl-1H-1,2,3-triazol-4-yl)methyl)phenyl)-N-methylmethanesulfonamide]
IC50 [1]: 3 nM
EC50 [2]: 76 nM

CN(c1cccc([C@H](Nc2cc(Cl)c3ncc(C#N)c(Nc4ccc(F)c(Cl)c4)c3c2)c2cn(C3CCN(C(C)(C)C)CC3)nn2)c1)S(C)(=O)=O [Example 568, (S)-N-(3-((1-(1-(tert-butyl)piperidin-4-yl)-1H-1,2,3-triazol-4-yl)((8-chloro-4-((3-chloro-4-fluorophenyl)amino)-3-cyanoquinolin-6-yl)amino)methyl)phenyl)-N-methylmethanesulfonamide]
IC50 [1]: 2 nM
EC50 [2]: 143 nM

C[C@@H](Nc1c(C#N)cnc2c(Cl)cc(N[C@@H](c3ccccc3)c3cn(C4CCN(C(C)(C)C)CC4)nn3)cc12)c1ccccc1 [Example 569, 6-(((S)-(1-(1-(tert-butyl)piperidin-4-yl)-1H-1,2,3-triazol-4-yl)(phenyl)methyl)amino)-8-chloro-4-(((R)-1-phenylethyl)amino)quinoline-3-carbonitrile]
IC50 [1]: 7 nM
EC50 [2]: 721 nM

CC(C)n1cc([C@@H](Nc2cc(Cl)c3ncc(C#N)c(Nc4ccc(F)c(Cl)c4)c3c2)c2cccc(CN3CCCC3)c2)nn1 [Example 570, (S)-8-chloro-4-((3-chloro-4-fluorophenyl)amino)-6-(((1-isopropyl-1H-1,2,3-triazol-4-yl) (3-(pyrrolidin-1-ylmethyl)phenyl)methyl)amino) quinoline-3-carbonitrile]
IC50 [1]: 13 nM
EC50 [2]: 207 nM

C[C@@H](Nc1c(C#N)cnc2c(Cl)cc(N[C@@H](c3cccc(C(=O)N(C)C)c3)c3cn(C4CCN(C(C)(C)C)CC4)nn3)cc12)c1ccccc1 [Example 571, 3-((S)-(1-(1-(tert-butyl)piperidin-4-yl)-1H-1,2,3-triazol-4-yl)((8-chloro-3-cyano-4-(((R)-1-phenylethyl)amino)quinolin-6-yl)amino)methyl)-N,N-dimethylbenzamide]
IC50 [1]: 6 nM
EC50 [2]: 382 nM
